Experimental data: US4153684A, “Immunizing and anti-infectious adjuvant agents constituted by N-acetyl-muramyl-L-alanyl-D-glutamic acid derivatives” (priority 1976, dated 1979)
Values joined by “and” are separate entries in the source; they are usually repeats but may differ in a detail not shown here. Equal values may be shown once.

Legend:
[1] = test system: anti-albumin antibodies; assay: Adjuvant character in aqueous solution: anti-albumin antibodies by passive hemagglutination (NHCH3 series); type: in vivo, Swiss mice
Procedure: Groups of 8 Swiss mice aged two months receive, by subcutaneous injection, 0.5 mg of antigen constituted by the albumin of bovine serum (BSA) and 0.1 mg of the substance tested in an isotonic saline solution. […] Thirty days later, the mice receive a further dose containing 0.1 mg of the same antigen.
The strength of antibody is determined by passive hemagglutination, by using the red blood corpuscles of sheep treated for formalin and recovered from the antigen studied by the method described by A. A. Hirata and M. W. Brandiss (J. Immunol., 100, 641-648, 1968). The taking of the blood took place 14, 28, 34 and 36 days after the first injection.

[2] = test system: antibody to ovalbumin; assay: Adjuvant character in oily phase: proportion of antibody to ovalbumin (NHCH3 series); type: in vivo, Hartley guinea-pigs; settings: 500 μg ovalbumin, 100 μg in FIA emulsion, 21 days
Procedure: As for the preceding tests, one follows the increase of the proportion of antibody caused by the injection of antigen and of the compound of the invention, but, in the present case, the injection contains an oily phase constituted by Freund's incomplete adjuvant (in water-in-oil emulsion).
For these tests, Hartley guinea-pigs of 350 g were used. The control animals receive, in each of the hind feet 0.1 ml of emulsion, either of FIA, or of FCA (Freund's complete adjuvant) containing 500 μg of ovalbumin (antigen). The test product is administered at the rate of 100 μg, in an emulsion of FIA.
21 days after the injection, the proportion of antibody is determined by passive hemagglutatination (PHA), as previously, and by precipitation by the method of Folin.

[3] = test system: anti-albumin antibody; assay: Adjuvant character in aqueous phase: anti-albumin antibody by passive hemagglutination (esters); type: in vivo, Swiss mice
Procedure: In the series of tests of which the results are indicated hereafter, the influence of the active principle according to the invention on the proportion of the anti-albumin antibody has been studied under the following conditions.
Groups of 8 Swiss mice aged two months receive by subcutaneous injection (SC) or orally (PO) 0.5 mg of antigen constituted by the albumin of bovine serum (BSA) with or without the substance tested in an isotonic saline solution. This large dose of antigen, since it is situated at the limit of the paralysing dose with respect to the immunising response, on account of this fact has a weak response or no response to the antigen alone in the case of the controls; it therefore constitutes a severe criterion for showing the activity of an adjuvant substance. Thirty days later, the mice receive, by the same method of administration, a further dose containing 0.1 mg of the same antigen.
The proportion of antibody is determined by passive hemagglutination by using the red blood corpuscles of sheep treated with formalin and recovered from the antigen studied according to the method described by A. A. Hirata and M. W. Brandiss (J. Immunol., 100, 641-648, 1968). The taking of the blood occurred 14, 28, 34 and 36 days after the first injection.
By way of comparison, mice receive, instead of the product according to the invention, either lipopolysaccharides (LPS) (extract of S.Enteritidis by the water-phenol method), or the adjuvant denoted by the name "WSA" and described by Adam et al. [Infect. Immun. (1973) 7, 855-861]. The control mice only receive the antigen.
The proportions of antibody express the maximum serum dilution which agglutinates a given quantity of red blood corpuscles of sheep.

[4] = test system: antibody specific to the ovalbumin; assay: Adjuvant character in oily phase: serum antibody specific to ovalbumin (esters); type: in vivo, Hartley guinea-pigs; settings: 100μg in FIA emulsion; for Serum antibody Precipitation: intradermal, 21 days; for Serum antibody Agglutination: passive hemagglutination
[5] = test system: retarded hypersensitivity to ovalbumin; assay: Retarded hypersensitivity cutaneous test to ovalbumin (esters); type: in vivo, Hartley guinea-pigs; settings: 100μg in FIA emulsion, challenge day 18, read 48 hours after
Procedure: The tests are effected on batches of 6 Hartley guinea-pigs, females, of 350 g. The administration is made by intradermal injection in the planter pad of each of the hind feet. […] The compound according to the invention is administered at the rate of 0.1 mg contained in the emulsion containing the FIA.
Eighteen days after this immunisation, one looks for possible reactions of retarded hypersensitivity in the antigen on injecting indradermally 0.01 mg or 5 μg of ovalbumin on the side of the animals, and 48 hours after, the reaction at the point of injection is observed. The diameter in mm of the reaction thus caused is measured.

[6] = test system: Klebsiella pneumoniae; assay: Anti-infectious protection, intramuscular inoculation of 10^4 K.pneumoniae; type: in vivo, hybrid mice (C57B1/6×AKR)Fl; settings: for Number of animals surviving on day 3 / Number of animals surviving on day 5 / Number of animals surviving on day 8: mouse, in vivo
[7] = test system: K. pneumoniae; design: species or system mice; settings: mouse, in vivo, iv
[8] = test system: mice; assay: LD50 by intravenous injection on mice, Mur-NAc-L-Ser-D-iso-Gln; type: in vivo; settings: mice aged two months
Procedure: By progressively increasing the doses administered, that for which the mortality of the mice of a single batch is established at 50% (LD50) is determined.

[9] = test system: anti-albumin antibodies; assay: Adjuvant character in aqueous phase, 0.5 mg BSA (Ser series); type: in vivo, Swiss mice
Procedure: In the series of tests of which the results are indicated hereafter, the influence of the active principle according to the invention on the strength of the anti-albumin antibodies has been studied under the following conditions.
(§1) Groups of 8 Swiss mice aged two months receive, by subcutaneous injection, 0.5 mg of antigen constituted by the albumin of bovine serum (BSA) and 0.1 mg of the tested substance in an isotonic saline solution. This high dose of antigen, since it is situated at the limit of the paralysing dose with respect to the immunising response, therefore carries with it a weak response or no response to the antigen alone in the tests; it then constitutes a severe criterion for showing the activity of an adjuvant substance. Thirty days later, the mice receive a further dose containing 0.1 mg of the same antigen.
(§2) The strength of the antibody is determined by passive hemagglutination by using the red blood corpuscles of sheep treated with formalin and recovered from the antigen studied by the method described by A. A. Hirata and M. W. Brandiss (J. Immunol., 100, 641-648, 1968). The taking of the blood occurred 14, 28, 34 and 36 days after the first injection.
(§3) By way of comparison, the mice receive, instead of the Mur-NAc-L-Ser-D-iso-Gln, either lipopolysaccharides (LPS) (extract of S. Enteritidis by the water-phenol method), or the adjuvant denoted by the name "WSA" and described by Adam et al. [Infect. Immun. (1973) 7, 855-861]. The control mice only received the antigen.

[10] = test system: anti-albumin antibodies; assay: Adjuvant character in aqueous phase, first antigen dose 0.05 mg BSA, PA and ABC (Ser series); type: in vivo, Swiss mice; settings: 100 μg, first BSA dose 0.05 mg
Procedure: as §1, §2, §3
These tests were carried out again with limitation of the dose of antigen in the first injection to 0.05 mg, the other conditions being the same. This weaker dose of antigen gives by itself a positive response with the controls which have received the antigen without adjuvant. It thus allows to be shown a substance which inhibits the response of immunising the disorder. Moreover, an adjuvant substance, under these conditions, always increases the strength of antibody with respect to that of the controls.
In these tests, the determination of the strength of antibody has been effected simultaneously by passive hemagglutination (PA) and by the method of fixation of the antigen by the serum (ABC), such as described by P. Minden and S. Parr (Handbook of Exp. Immunol., P. 463, D. M. Weir ed. Blackwell Scient. Pub. Oxford and Edinburgh, 1967).

[11] = 100μg S.C. with BSA 0.5 mg in isotonic saline
[12] = 100μg S.C. with BSA 0.5 mg, further 0.1 mg BSA at 30 days
[13] = 100μg S.C. with BSA 0.5 mg in isotonic saline, maximum serum dilution agglutinating
[14] = I.V. 100 μg, 1 hour after the infection
[15] = I.V. 100 μg, 24 hours before the infection
[16] = iv, listed as Mur-NAc-L-Ala-D-Glu-(OCH3)2
[17] = per os 2000 μg, 24 hours before the infection

Structure (SMILES) | Proportion of antibody 28th day ([3]; 100μg S.C. with BSA 0.5 mg) | Proportion of antibody 14th day [3, 13] | Proportion of antibody 34th day [3, 12] | Proportion of antibody 36th day [3, 12] | Serum antibody Precipitation ([4]; ovalbumin 0.5 mg) | Serum antibody Agglutination ([4]; ovalbumin 0.5 mg) | Cutaneous test (diameter in mm) ([5]; ovalbumin 0.5 mg) | % of protection [6, 14] | % of protection [6, 15] | Number of animals surviving on day 3 [6] | Number of animals surviving on day 5 [6] | Number of animals surviving on day 8 [6] | Number of animals surviving on day 3 ([6]; iv) | Number of animals surviving on day 5 ([6]; iv) | Number of animals surviving on day 8 ([6]; iv) | % of protection [6, 17] | % of protection [7] | Number of animals surviving on day 3 [7] | Number of animals surviving on day 5 [7] | Number of animals surviving on day 8 [7] | also measured
CNC(=O)C(CCC(=O)O)NC(=O)C(C)NC(=O)C(C)OC1C(O)C(CO)OC(O)C1NC(C)=O [Mur-NAc-L-Ala-D-Glu(NHCH3), 2-(2-acetamido-2-deoxy-3-O-D-glucopyranosyl)-D-propionyl-L-alanyl-D-(α-methylamide)-glutamic acid] | – | – | – | – | – | – | – | – | – | – | – | – | – | – | – | – | – | – | – | – | strength of antibody 14th day [1, 11]: 6; strength of antibody 34th day [1, 12]: 1600; strength of antibody day (fourth column, 36 days) [1, 12]: 1600; Proportion of antibody Agglutination ([2]; PHA): 6100; Proportion of antibody Precipitation ([2]; method of Folin): 5500
COC(=O)CC[C@@H](NC(=O)[C@H](C)NC(=O)[C@@H](C)OC1C(O)C(CO)OC(O)C1NC(C)=O)C(=O)OC (stereo partly drawn) [Mur-NAc-L-Ala-D-Glu(OCH3)2, 2-(2-acetamido-2-deoxy-3-O-D-glucopyranose)-D-propionyl-L-alanyl-D-glutamic dimethyl ester] | 50 | 50 | 400 | 800 | 950 µg/mL | 2600 | 6.2 mm | 88% | 46% | 10 | 9 | 8 | 8 | 8 | 8 | 50% | 52.5% | 15 | 12 | 10 | Number of animals surviving on day 3 [6, 16]: 21; Number of animals surviving on day 5 [6, 16]: 19; Number of animals surviving on day 8 [6, 16]: 15
COC(=O)[C@@H](CCC(=O)O)NC(=O)[C@H](C)NC(=O)[C@@H](C)OC1C(O)C(CO)OC(O)C1NC(C)=O (stereo partly drawn) [Mur-NAc-L-Ala-D-Glu-α-OCH3, 2-(2-acetamido-2-deoxy-3-O-D-glucopyranose)-D-propionyl-L-alanyl-D-glutamic α-methyl ester] | 12 | 12 | 200 | 400 | – | – | – | 88% | 67% | 11 | 9 | 6 | 24 and 16 | 24 and 16 | 23 and 14 | 40.5% | 65% | 16 | 16 | 12 | Proportion of antibody 14th day ([3]; 10μg S.C. with BSA 0.5 mg): 6; Proportion of antibody 28th day ([3]; 10μg S.C. with BSA 0.5 mg): 6; Proportion of antibody 34th day ([3]; 10μg S.C. with BSA 0.5 mg): 200; Proportion of antibody 36th day ([3]; 10μg S.C. with BSA 0.5 mg): 400; Proportion of antibody 14th day ([3]; 2000μg P.O. with BSA 0.5 mg): 6; Proportion of antibody 28th day ([3]; 2000μg P.O. with BSA 0.5 mg): 6; Proportion of antibody 34th day ([3]; 2000μg P.O. with BSA 0.5 mg): 50; Proportion of antibody 36th day ([3]; 2000μg P.O. with BSA 0.5 mg): 200; Serum antibody Precipitation ([4]; ovalbumin 1 mg, nitrogen precipitable per ml serum): 2600 µg/mL; Cutaneous test (diameter in mm) ([5]; ovalbumin 1 mg): 6 ± 3 mm
COC(=O)CC[C@@H](NC(=O)[C@H](C)NC(=O)[C@@H](C)OC1C(O)C(CO)OC(O)C1NC(C)=O)C(N)=O (stereo partly drawn) [Mur-NAc-L-Ala-D-iso-Gln(OCH3), 2-(2-acetamido-2-deoxy-3-O-D-glucopyranose)-D-propionyl-L-alanyl-D-isoglutamine methyl ester] | 12 | 12 | 100 | 800 | 2100 µg/mL | 3000 | 12 mm | – | 29% | – | – | – | 21 | 3 | 11 | – | – | – | – | – | –
CC(=O)NC1C(O)OC(CO)C(O)C1OC(C)C(=O)NC(CO)C(=O)NC(CCC(=O)O)C(N)=O [Mur-NAc-L-Ser-D-iso-Gln, 2-(2-acetamido-2-deoxy-3-O-D-glucopyranosyl)-D-propionyl-L-seryl-D-isoglutamine] | – | – | – | – | – | – | – | – | – | – | – | – | – | – | – | – | – | – | – | – | LD50 [8]: > 1 g per kg; Strength of antibody 28th day ([9]; 100μg S.C. with BSA 0.5 mg): 25; strength of antibody 14th day [9, 11]: 12; Strength of antibody 36th day [9, 12]: 1600; strength of antibody 34th day [9, 12]: 1600; Strength of antibody 28th day ABC [10]: < 20; Strength of antibody 28th day PA [10]: 3; Strength of antibody 34th day ABC [10]: < 20; Strength of antibody 34th day PA [10]: 50; Strength of antibody 42nd day PA [10]: 260; Strength of antibody 36 day ABC [10]: 230; Strength of antibody 36 day PA [10]: 800; Strength of antibody 14th day ABC ([10]; fixation of the antigen by the serum): < 20; Strength of antibody 14th day PA ([10]; passive hemagglutination): < 3
